Data taken from US20260356826A1, “SALTS OF AMINO QUINAZOLINE DERIVATIVES” (CHIESI FARMACEUTICI S.P.A., priority 2023, published 2026).
“Also recorded” adds a separate entry of the source. Structures can show the parent of a compound that is named as a salt. Each block holds one molecule with its values, some of them ahead of it.

What was measured:
Assay type in all cases: physicochemical
[1] = Two-sector dissolution study (FaSSGF then FaSSIF), parachute effect; settings: for Estimated supersaturation duration (parachute effect): second experiment, pH adjusted to 6.5 after FaSSIF addition; for Time of precipitation: protocol of the second experiment
Protocol: The dissolution behaviour of mesylate salt Form 2 of compound A was studied in a two-sector model in comparison with free base Form A to evaluate a possible “spring-parachute effect”.
The parachute effect is observable in two-sector dissolution studies. A test compound is incubated with FaSSGF and its concentration is monitored over time. FaSSIF is then added to the solution whilst continuing the monitoring. The period of time in which the test compound remains in solution without or before precipitating refers to the supersaturation time and represents the parachute effect.
The experiment was conducted using DISS Profiler 6 Channel Pion. The free base Form A and mesylate salt Form 2 of compound A were each incubated in 8 ml of FaSSGF (pH 1.6) for 20 minutes at the concentration of 350 mg/250 ml. 16 ml of FaSSIF concentrated 1.5× (pH 6.5) was added with an incubation time of 180 minutes. The resulting target pH should be approximately 5-6. The experiment was conducted at 37 °C. The entire dissolution profile was monitored until the end of the experiment to evaluate a possible parachute effect, its duration and to evaluate the maximum solubility reached after the addition of FaSSIF.
A second experiment was conducted, with an additional step of adjusting the pH to 6.5 after FaSSIF addition. Both free base Form A and mesylate salt Form 2 of compound A were tested.
A third experiment was conducted on esylate salt Form 1 of compound A, using the same protocol of the second experiment, with free base Form A and mesylate salt Form 2 of compound A as controls. The experiment was aimed at evaluating comparatively a possible parachute effect of the esylate salt and its duration. Precipitation of the free base was observed after roughly 20 minutes, while precipitation of the esylate salt and mesylate salt were observed after 30 and 40 minutes respectively.

[2] = Formulations in 20% SBE-βCD with citrate buffer: appearance and pH
Protocol: The drug content and homogeneity of the mesylate salt Form 2 and the free base Form A of Compound A in 20% w/v SBE-PCD (Sulfobutyl-ether-β-Cyclodextrin, Captisol; CYDEX Pharmaceutical) were tested at different citrate buffer concentrations such as 0.05 M, 0.1 M, 0.5 M and 1 M, at pH 2.5. To prepare the vehicle, the proper amount of citric acid (Sigma Aldrich; CAS: 77-92-9) was dissolved in water in a volumetric flask, then the pH was increased up to 2.5 using 1M NaOH. Then water was added and brought to the final volume. SBE-PCD was weighed and added in a beaker containing the citrate buffer, then left under stirring until it was dissolved. The required volume of vehicle was added to a known amount of Compound A free base Form A or Mesylate salt Form 2, then sonicated at RT for at least 10 min. The formulation was kept under magnetic stirring for at least 10 min before analysis. The stability in terms of content uniformity and pH were evaluated for up to 8 days. The samples were kept at RT and the nominal concentration was 40 mg/ml.

[3] = Stability of mesylate salt Form 2 on storage (UPLC/UV/MS and XRPD), open and closed conditions; settings: for Stability: one year; for XRPD pattern change: open and closed; for % area main peak: 0 days; for Stability (overall): regular and stressed storage conditions
Protocol: The samples were dissolved in solvent (water/ACN 40/60) at about 1 mg/mL and diluted at about 0.07 mg/mL.
Approximately 120 mg of mesylate salt Form 2 of Compound A according to Example 2 was stored in a properly labelled open amber glass vial covered with filter paper to simulate open conditions, and in a screw cap glass to simulate closed conditions. The samples were prepared such that a layer of powder was uniformly spread on the bottom of the vial. Approximately 70 mg of powder were weighed in hydroxypropyl methylcellulose (HPMC) capsules size 3 (Capsugel) and for each condition two capsules were stored. The samples were placed at RT in a desiccator with NaBr to reach about 60% RH and in a stability chamber to reach 75% RH at 40 °C. The stability of the mesylate salt Form 2 of Compound A was thereby tested in four distinct conditions: open condition at 25 °C/60% RH, closed condition at 25 °C/60% RH, open condition at 40 °C/75% RH, and closed condition at 40 °C/75% RH. At the time points 0, 14, 28, 56, 84, 168 and 365 days the corresponding samples were removed from the stability chambers. After conditioning at RT, the samples were analyzed by UPLC/UV/MS and XRPD. One or two extra samples were stored for every condition.

[4] = 20% SBE-βCD, citrate buffer 0.05 M, nominal 40 mg/ml
[5] = 20% SBE-βCD, citrate buffer 0.05 M, nominal 40 mg/ml, listed as Free base Form A
[6] = 20% SBE-βCD, citrate buffer 0.1 M, nominal 40 mg/ml
[7] = 20% SBE-βCD, citrate buffer 0.1 M, nominal 40 mg/ml, listed as Free base Form A
[8] = 20% SBE-βCD, citrate buffer 0.5 M, nominal 40 mg/ml
[9] = 20% SBE-βCD, citrate buffer 0.5 M, nominal 40 mg/ml, listed as Free base Form A
[10] = 20% SBE-βCD, citrate buffer 1 M, nominal 40 mg/ml

pH after the addition of FaSSIF ([1]; first experiment): 5.8
Precipitation start after FaSSIF addition ([1]; first experiment, no pH adjustment, 37 °C): about 10 minutes
Estimated supersaturation duration (parachute effect) [1]: 8 min
Time of precipitation ([1]; third experiment): roughly 20 minutes
Appearance [2, 4]: suspension
Appearance [2, 5]: Fine suspension
pH of formulation [2, 5]: 3.1
Appearance [2, 6]: suspension
Appearance [2, 7]: Suspension
pH of formulation [2, 7]: 3.5
Appearance [2, 8]: suspension
Appearance [2, 9]: Thick suspension
pH of formulation [2, 9]: 3.2
Time of gelification ([2]; 20% SBE-βCD, citrate buffer 1 M): 24 h
Appearance [2, 10]: Solution, gel after 24 hours
pH of formulation [2, 10]: 3.2
Time of gelification ([2]; 20% SBE-βCD, citrate buffer 1 M, listed as Free base Form A): ≤ 24 h
Structure (SMILES): COc1cc(-c2ccc(F)cn2)cc2c(N[C@H](C)c3noc(C)n3)ncnc12 [free base Form A, (R)-6-(5-fluoropyridin-2-yl)-8-methoxy-N-(1-(5-methyl-1,2,4-oxadiazol-3-yl)ethyl)quinazolin-4-amine]

XRPD pattern change ([3]; 25 °C/60% RH): no significant changes
XRPD pattern change ([3]; 40 °C/75% RH): no significant changes
% area main peak ([3]; ES+, 25 °C/60% RH closed): 91.6 % area
% area main peak ([3]; ES+, 25 °C/60% RH open): 91.6 % area
% area main peak ([3]; ES+, 40 °C/75% RH closed): 91.6 % area
% area main peak ([3]; ES+, 40 °C/75% RH open): 91.6 % area
% area main peak ([3]; ES−, 25 °C/60% RH closed): 100.0 % area
% area main peak ([3]; ES−, 25 °C/60% RH open): 100.0 % area
% area main peak ([3]; ES−, 40 °C/75% RH closed): 100.0 % area
% area main peak ([3]; ES−, 40 °C/75% RH open): 100.0 % area
% area main peak ([3]; UV, 25 °C/60% RH closed): 98.4 % area
% area main peak ([3]; UV, 25 °C/60% RH open): 98.4 % area
% area main peak ([3]; UV, 40 °C/75% RH closed): 98.4 % area
% area main peak ([3]; UV, 40 °C/75% RH open): 98.4 % area
Stability (overall) ([3]; listed as mesylate salt): stable for several months
pH measured at the end of the experiment ([1]; first experiment): 4.5
Precipitation after FaSSIF addition ([1]; first experiment, no pH adjustment): No precipitation was observed
Estimated supersaturation duration (parachute effect) [1]: 14 min
Duration of the parachute effect compared to free base Form A ([1]; third experiment): longer duration of the parachute effect
Time of precipitation ([1]; third experiment): 40 min
Appearance [2, 4]: Solution
pH of formulation [2, 4]: 3.0
Appearance [2, 6]: Solution
pH of formulation [2, 6]: 3.0
Appearance [2, 8]: Solution
pH of formulation [2, 8]: 2.8
Appearance [2, 10]: Solution
pH of formulation [2, 10]: 2.8
Formulability in solution compared to free base Form A ([2]; 20% SBE-βCD, citrate buffers): better formulability in solution
Gelification during the test period ([2]; all citrate buffer concentrations, up to 8 days, RT): No gelification was observed
Appearance ([2]; all concentrations of citrate buffer): Stable solutions
Structure (SMILES): COc1cc(-c2ccc(F)cn2)cc2c(N[C@H](C)c3noc(C)n3)ncnc12 [mesylate salt Form 2, (R)-6-(5-fluoropyridin-2-yl)-8-methoxy-N-(1-(5-methyl-1,2,4-oxadiazol-3-yl)ethyl)quinazolin-4-amine]
Stability ([3]; 25 °C/60% RH closed): remained stable throughout the entire test period
Stability ([3]; 25 °C/60% RH open): remained stable throughout the entire test period
Stability ([3]; 40 °C/75% RH closed): remained stable throughout the entire test period
Stability ([3]; 40 °C/75% RH open): remained stable throughout the entire test period
Stability (overall) [3]: excellent stability for at least one year at RT; also recorded: remains stable in dry form for at least one year at different conditions
